From patent US6451807B1, “Methods of treating sexual dysfunction in an individual suffering from a retinal disease, class 1 congestive heart failure, or myocardial infarction using a PDE5 inhibitor” (Lilly Icos, LLC., priority 1999, dated 2002)

Experiments:
[1] = target: T1, human PDE5 (Homo sapiens, UniProt O76074); assay: PDE5 enzyme inhibition, IC50 determination; type: biochemical
T1 construct: made in house; host or cells: Saccharomyces cerevisiae protease-deficient strain BJ2-54 (ATCC 74465)

[2] = target: T2, Bovine PDE6 (Bos taurus, UniProt P11541+P23439); assay: PDE6 enzyme inhibition, IC50 determination; type: biochemical; details: for PDE6/PDE5: ratio of IC50 versus PDE6 to IC50 versus PDE5
T2 construct: Hypotonic extracts were prepared by suspending isolated ROS; tissue Dr. N. Virmaux, INSERM U338, Strasbourg; host or cells: bovine retina, rod outer segment hypotonic extract
T2 sequence (P11541 2-856 limits assumed): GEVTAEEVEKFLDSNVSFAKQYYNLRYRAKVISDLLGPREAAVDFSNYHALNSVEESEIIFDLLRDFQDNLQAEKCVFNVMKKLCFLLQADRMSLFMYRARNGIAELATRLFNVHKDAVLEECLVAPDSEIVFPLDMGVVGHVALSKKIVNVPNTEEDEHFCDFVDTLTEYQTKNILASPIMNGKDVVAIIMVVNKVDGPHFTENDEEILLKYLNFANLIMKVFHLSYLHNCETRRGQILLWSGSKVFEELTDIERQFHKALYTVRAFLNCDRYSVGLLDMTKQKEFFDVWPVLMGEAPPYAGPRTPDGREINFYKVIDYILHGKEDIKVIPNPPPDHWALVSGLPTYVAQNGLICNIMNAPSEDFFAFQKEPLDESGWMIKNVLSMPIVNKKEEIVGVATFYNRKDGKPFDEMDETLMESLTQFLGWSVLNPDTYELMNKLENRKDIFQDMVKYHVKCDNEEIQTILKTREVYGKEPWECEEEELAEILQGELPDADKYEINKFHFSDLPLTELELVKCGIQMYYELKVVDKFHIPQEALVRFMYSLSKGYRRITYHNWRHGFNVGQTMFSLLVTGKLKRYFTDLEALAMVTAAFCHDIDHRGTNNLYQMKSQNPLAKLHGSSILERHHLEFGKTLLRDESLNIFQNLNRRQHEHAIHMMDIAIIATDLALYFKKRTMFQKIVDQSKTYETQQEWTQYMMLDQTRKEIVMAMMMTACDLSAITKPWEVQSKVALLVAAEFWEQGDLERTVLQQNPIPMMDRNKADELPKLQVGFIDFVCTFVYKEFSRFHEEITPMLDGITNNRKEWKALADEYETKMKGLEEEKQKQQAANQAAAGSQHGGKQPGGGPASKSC
T2 sequence (P23439 2-850 limits assumed): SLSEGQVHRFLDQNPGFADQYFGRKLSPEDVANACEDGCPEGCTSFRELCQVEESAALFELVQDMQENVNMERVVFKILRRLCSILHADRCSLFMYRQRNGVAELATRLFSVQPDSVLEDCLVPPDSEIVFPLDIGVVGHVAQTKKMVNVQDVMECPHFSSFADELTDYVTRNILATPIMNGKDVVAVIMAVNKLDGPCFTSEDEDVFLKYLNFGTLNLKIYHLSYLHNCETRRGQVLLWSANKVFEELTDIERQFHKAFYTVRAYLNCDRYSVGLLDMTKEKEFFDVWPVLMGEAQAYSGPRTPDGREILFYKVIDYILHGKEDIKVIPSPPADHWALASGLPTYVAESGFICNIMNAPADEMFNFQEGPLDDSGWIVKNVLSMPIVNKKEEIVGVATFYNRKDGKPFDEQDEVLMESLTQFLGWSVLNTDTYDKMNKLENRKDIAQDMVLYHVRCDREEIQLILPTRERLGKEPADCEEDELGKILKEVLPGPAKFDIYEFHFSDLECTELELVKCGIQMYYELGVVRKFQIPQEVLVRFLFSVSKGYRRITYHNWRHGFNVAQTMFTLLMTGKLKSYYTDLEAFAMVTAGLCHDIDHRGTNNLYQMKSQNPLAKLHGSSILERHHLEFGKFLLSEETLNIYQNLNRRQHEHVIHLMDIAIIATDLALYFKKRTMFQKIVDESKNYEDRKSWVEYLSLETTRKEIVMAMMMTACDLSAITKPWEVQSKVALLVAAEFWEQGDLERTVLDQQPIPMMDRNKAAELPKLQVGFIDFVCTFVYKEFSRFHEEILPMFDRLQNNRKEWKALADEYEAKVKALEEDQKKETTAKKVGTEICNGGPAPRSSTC
T2 sequence (P04972 1-87 partner): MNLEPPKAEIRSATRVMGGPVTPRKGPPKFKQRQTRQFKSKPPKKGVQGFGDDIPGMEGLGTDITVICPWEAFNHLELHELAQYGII
Experimental: Bovine PDE6 was supplied by Dr. N. Virmaux, INSERM U338, Strasbourg. Bovine retinas were prepared as described by Virmaux et al., FEBS Letters, 12(6), pp. 325-328 (1971) and see also, A. Sitaramayya et al., Exp. Eye Res., 25, pp. 163-169 (1977). Briefly, unless stated otherwise, all operations were done in the cold and in dim red light. Eyes were kept in the cold and in the dark for up to four hours after slaughtering.
Preparation of bovine retinal outer segment (ROS) basically followed procedures described by Schichi et al., J. Biol. Chem., 224:529 (1969). In a typical experiment, 35 bovine retinas were ground in a mortar with 35 mL 0.066 M phosphate buffer, pH 7.0, made up to 40% with sucrose, followed by homogenization in a Potter homogenizer (20 up and down strokes). The suspension was centrifuged at 25,000×g for 20 minutes. The pellet was homogenized in 7.5 mL 0.006 M phosphate buffer (40% in sucrose), and carefully layered under 7.5 mL of phosphate buffer (containing no sucrose). Centrifugation was conducted in a swing-out rotor at 45,000×g for 20 minutes, and produced a pellet which is black at the bottom, and also a red band at the interface 0.066 M. phosphate—40% sucrose/0.066 M phosphate (crude ROS). The red material at the interface was removed, diluted with phosphate buffer, spun down to a pellet, and redistributed in buffered 40% sucrose as described above. This procedure was repeated 2 or 3 times until no pellet was formed. The purified ROS was washed in phosphate buffer and finally spun down to a pellet at 25,000×g for 20 minutes. All materials were then kept frozen until used.
Hypotonic extracts were prepared by suspending isolated ROS in 10 mM Tris-Cl pH 7.5, 1 mM EDTA, and 1 mM dithioerythritol, followed by centrifugation at 100,000×g for 30 minutes.
The preparation was reported to have a specific activity of about 35 nmoles cGMP hydrolyzed per minute per milligram protein.
Biophys. Acta, 384:430 (1975).

[3] = test system: PDE1; details: package insert; cited from earlier work
[4] = target: PDE2 (Homo sapiens, UniProt O00408); details: package insert; cited from earlier work
Chain of PDE2 (O00408 whole entry): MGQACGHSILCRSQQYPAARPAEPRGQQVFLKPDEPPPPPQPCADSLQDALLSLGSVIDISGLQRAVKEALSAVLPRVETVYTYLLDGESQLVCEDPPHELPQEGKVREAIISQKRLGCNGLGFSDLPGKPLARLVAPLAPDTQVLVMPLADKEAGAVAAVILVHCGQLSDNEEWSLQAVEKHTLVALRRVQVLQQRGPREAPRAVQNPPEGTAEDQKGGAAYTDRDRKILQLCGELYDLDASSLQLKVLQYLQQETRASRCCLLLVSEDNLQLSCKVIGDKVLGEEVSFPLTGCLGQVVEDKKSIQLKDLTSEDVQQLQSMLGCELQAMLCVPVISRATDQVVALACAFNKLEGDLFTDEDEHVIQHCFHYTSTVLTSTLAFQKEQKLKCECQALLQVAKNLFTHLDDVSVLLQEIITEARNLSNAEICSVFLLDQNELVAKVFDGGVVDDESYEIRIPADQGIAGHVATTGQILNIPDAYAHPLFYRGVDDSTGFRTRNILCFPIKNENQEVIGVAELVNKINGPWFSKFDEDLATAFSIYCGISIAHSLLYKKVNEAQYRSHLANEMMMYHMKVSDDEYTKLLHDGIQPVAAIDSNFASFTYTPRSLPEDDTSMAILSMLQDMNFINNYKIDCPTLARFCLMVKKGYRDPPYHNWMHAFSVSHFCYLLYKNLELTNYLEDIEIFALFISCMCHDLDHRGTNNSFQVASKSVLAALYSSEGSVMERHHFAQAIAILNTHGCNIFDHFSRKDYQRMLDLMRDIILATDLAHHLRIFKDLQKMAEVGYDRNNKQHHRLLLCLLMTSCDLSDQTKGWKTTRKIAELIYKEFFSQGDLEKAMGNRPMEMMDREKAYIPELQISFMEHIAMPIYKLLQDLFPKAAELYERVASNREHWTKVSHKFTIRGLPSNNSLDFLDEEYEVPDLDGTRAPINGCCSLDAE

[5] = test system: PDE3; details: package insert; cited from earlier work
[6] = test system: PDE4; details: package insert; cited from earlier work
[7] = test system: patients taking organic nitrates; details: in combination with organic nitrates; cited from earlier work

IC50 [1]	IC50 [2]	PDE6/PDE5 [2]	SMILES	more potent inhibitor of PDE5 than PDE1 [3]	more potent inhibitor of PDE5 than PDE2 [4]	more potent inhibitor of PDE5 than PDE3 [5]	more potent inhibitor of PDE5 than PDE4 [6]	effect on hypotensive effects of nitrates [7]
5 nM	663 nM	133	O=C1C2Cc3c([nH]c4ccccc34)C(c3ccc4c(c3)OCO4)N2C(=O)CN1Cc1ccc(NS(=O)(=O)C(F)(F)F)cc1 (centres unmarked) [Compound 1]					
2 nM	420 nM	210	O=C1C2Cc3c([nH]c4ccccc34)C(c3ccc4c(c3)OCO4)N2C(=O)CN1Cc1cccc(NS(=O)(=O)C(F)(F)F)c1 (centres unmarked) [Compound 3]					
5 nM	729 nM	146	CC1NC(=O)C2Cc3c([nH]c4ccccc34)C(c3ccc4c(c3)OCO4)N2C1=O (centres unmarked) [Compound 4]					
			CCCc1nn(C)c2c(=O)[nH]c(-c3cc(S(=O)(=O)N4CCN(C)CC4)ccc3OCC)nc12 [sildenafil]	greater than 80 fold	greater than 1,000 fold	greater than 1,000 fold	greater than 1,000 fold	potentiates the hypotensive effects of nitrates
